{
  "source": "patent US9273088B2",
  "about": "“Ginsenoside derivative compounds and the use thereof in protection against ischemia/reperfusion injury” (Macau University of Science and Technology, priority 2013, dated 2016)",
  "key": {"H9c2 cells [1]": {"system": "H9c2 cells", "assay": "Hypoxia/reoxygenation (H/R) injury model, MTT cell viability assay", "format": "cell-based, rat", "details": "for protective effect compared with the positive control drug: vs diazoxide 50 μM; for protective effect compared with the positive control drug / order of cardioprotective effects / viability of cardiomyocyte cells after H/R (ratio of viable cells relative to normoxia control): hypoxia/reoxygenation; for order of cardioprotective effects: rank order of the 7 derivative compounds; for viability of cardiomyocyte cells after H/R (ratio of viable cells relative to normoxia control): mean±SEM", "description": "(§1) Embryonic rat heart derived cell line H9c2 (2-1), shorted in H9c2 cells, was purchased from ATCC (CRL-1446), which is a permanent cell line and derived from embryonic BDIX rat ventricular heart tissue. Dulbecco's Modified Eagle Medium, Fetal Bovine Serum, and Penicillin-Streptomycin-Glutamine, 2.5% Trypsin/EDTA solution, Phosphate-buffered saline from GIBCO® (Invitrogen™) were used.\n(§2) H9c2 cells were cultured in DMEM medium supplemented with 10% fetal bovine serum, 1% glutamine, 50 U/ml penicillin and […] streptomycin. The culture atmosphere for H9c2 cells was 95% air with 5% carbon dioxide (CO2) at 37.0° C. The medium was replaced every 2-3 days. A stock of cells was grown in a 100 cm^2 culture dish and split before confluence at a subcultivation ratio of 1:4. Cells used for experiments were seeded at a density of 1.0×10^4 cells/well in a 96-well culture plate, and cells in each well were allowed to grow to 60-80% confluence within 24 h prior to drug treatment.\nAfter treatment with desired concentrations of drug for 3 h, the cells were washed twice with Krebs-Ringer Bicarbonate buffer (KRB; 115 mM NaCl, 4.7 mM KCl, 2.5 mM CaCl2, 1.2 mM KH2PO4, 1.2 mM MgSO4, 24 mM NaHCO3, 10 mM HEPES; pH 7.4). Aliquots of KRB supplemented with 0.01% (w/v) BSA were added to the cells immediately prior to hypoxia. A Billups-Rothenberg modular incubator chamber (Billups-Rothenberg, Inc.; DelMar, Calif.) was used to produce an in vitro Hypoxia/Reoxygenation challenge. In essence, cells were placed in the sealed chamber and the chamber was flushed with 100% nitrogen for 5 min at a flow rate of 25 liter/min. After closing all sealable connectors, the chamber was transferred to an incubator and the cells in the chamber were subjected to a period of hypoxia at 37° C. Reoxygenation was initiated by opening the chamber and then replacing the KRB with fresh DMEM medium. The cells were then cultured in the incubator under an atmosphere of 5% (v/v) CO2 in air at 37° C. for designed periods.\n(§3) The cell viability was measured using the MTT colorimetric assay, which was based on the conversion of MTT to formazan crystals by mitochondrial dehydrogenase. Briefly, H9c2 cells were seeded in 96-well plates at 1×10^4 cells/well and incubated at 37° C. for 48 h. The cells were then treated with DMSO (H/R control), diazoxide (50 μM). Compounds A-G (at two concentrations of 12.5 μM or 25 μM) and incubated under hypoxia condition. The cells without any treatment and incubated under normoxia condition were used as normal control. At the end of the treatments, […] MTT (5 mg/ml) was added for 4 h and then […] MTT buffer (10% SDS solution, pH7.4) was added to each well. After overnight incubation and 30 s vibration, the absorbance was read at 490 nm wavelength. Results were expressed as the ratio of the number of viable cells with treatments relative to that of the normoxia control.\nData were expressed as mean±SEM. One-way ANOVA with multiple comparisons using the Dunnett's Multiple Comparison Test was used to analyze differences between groups. All statistical analysis was performed using Prism 5 for Windows version 5.00 (GraphPad software, Inc., La Jolla, Calif. 92037 USA). Differences were considered significant if p<0.05."}, "H9c2 cells [2]": {"system": "H9c2 cells", "assay": "Cytotoxicity study in normoxia condition, MTT cell viability assay", "format": "cell-based, rat", "description": "as §1, §2, §3\nThe cell line and reagents used, and cell culture methods, cell viability assay and statistical analysis employed were described in Example 2.\nThe cells were treated with desired concentrations of compounds A-G for 3 h, then the medium thereof was replaced with DMEM medium with 10% fetal bovine serum, 1% glutamine, 50 U/ml penicillin and […] streptomycin. The culture atmosphere for normaxia condition was 95% air with 5% carbon dioxide (CO2) at 37.0° C. The cells were then cultured in the incubator for designed periods. The cells without any treatment and incubated under normoxia condition were used as positive control.\nResults were expressed as the ratio of the number of viable cells with treatments relative to that of the positive control."}},
  "data": [
    {"compound": "3-O-[β-D-glucopyranosyl(1→2)-β-D-glucopyranosyl]-3β,12β,20(R), 24(S)-tetrahydroxydammar-25-ene and its 24(R) epimer [Compound C]", "values": [
      {"measurement": "protective effect compared with the positive control drug", "setting": "H9c2 cells [1]; 12.5 or 25 μM", "result": "higher than the positive control drug"},
      {"measurement": "order of cardioprotective effects", "setting": "H9c2 cells [1]", "result": "G>F>C>A>D>B, E"},
      {"measurement": "cytotoxicity under normoxia condition", "setting": "H9c2 cells [2]; equivalent dosages", "result": "no significant cytotoxicity"}
    ]},
    {"compound": "3-O-[β-D-glucopyranosyl(1→2)-β-D-glucopyranosyl]-3β,12β,20(R), 25-tetrahydroxydammar-23-ene [Compound D]", "values": [
      {"measurement": "viability of cardiomyocyte cells after H/R (ratio of viable cells relative to normoxia control)", "setting": "H9c2 cells [1]; 25 μM, 3 h pretreatment", "result": "61.06±0.30", "unit": "%"},
      {"measurement": "protective effect compared with the positive control drug", "setting": "H9c2 cells [1]; 12.5 or 25 μM", "result": "higher than the positive control drug"},
      {"measurement": "order of cardioprotective effects", "setting": "H9c2 cells [1]", "result": "G>F>C>A>D>B, E"},
      {"measurement": "cytotoxicity under normoxia condition", "setting": "H9c2 cells [2]; equivalent dosages", "result": "no significant cytotoxicity"}
    ]},
    {"compound": "3-O-[β-D-glucopyranosyl(1→2)-β-D-glucopyranosyl]-3β,12β,20(S),25-tetra-hydroxydammar-23-ene [Compound B]", "values": [
      {"measurement": "order of cardioprotective effects", "setting": "H9c2 cells [1]", "result": "G>F>C>A>D>B, E"}
    ]},
    {"compound": "3-O-[β-D-glucopyranosyl(1→2)-β-D-glucopyranosyl]-3β,12β,20(S), 24(S)-tetrahydroxydammar-25-ene and its 24(R) epimer [Compound A]", "values": [
      {"measurement": "protective effect compared with the positive control drug", "setting": "H9c2 cells [1]; 12.5 or 25 μM", "result": "higher than the positive control drug"},
      {"measurement": "order of cardioprotective effects", "setting": "H9c2 cells [1]", "result": "G>F>C>A>D>B, E"},
      {"measurement": "cytotoxicity under normoxia condition", "setting": "H9c2 cells [2]; 12.5 μM, vs untreated control", "result": "no statistically significant cytotoxicity"},
      {"measurement": "cytotoxicity under normoxia condition", "setting": "H9c2 cells [2]; 25 μM, vs untreated control", "result": "no statistically significant cytotoxicity"},
      {"measurement": "cytotoxicity under normoxia condition", "setting": "H9c2 cells [2]; equivalent dosages", "result": "no significant cytotoxicity"}
    ]},
    {"compound": "3-O-[β-D-glucopyranosyl(1→2)-β-D-glucopyranosyl]-20(R), 24(S)-epoxydammarane-3β,12β-triol and its 24(R) epimer [Compound E]", "values": [
      {"measurement": "order of cardioprotective effects", "setting": "H9c2 cells [1]", "result": "G>F>C>A>D>B, E"},
      {"measurement": "cytotoxicity under normoxia condition", "setting": "H9c2 cells [2]; equivalent dosages", "result": "no significant cytotoxicity"}
    ]},
    {"compound": "CC1=NS(=O)(=O)c2cc(Cl)ccc2N1", "note": "[Positive 50, diazoxide, reference compound]", "values": [
      {"measurement": "viability of cardiomyocyte cells after H/R (ratio of viable cells relative to normoxia control)", "setting": "H9c2 cells [1]; 50 μM positive control, p<0.001", "result": "61.69±0.37", "unit": "%"}
    ]},
    {"compound": "CC(C)=CCC[C@](C)(O)[C@H]1CC[C@]2(C)[C@@H]1[C@H](O)C[C@@H]1[C@@]3(C)CC[C@H](O[C@@H]4O[C@H](CO)[C@@H](O)[C@H](O)[C@H]4O[C@@H]4O[C@H](CO)[C@@H](O)[C@H](O)[C@H]4O)C(C)(C)[C@@H]3CC[C@]12C", "note": "[Rg3, reference compound]", "values": [
      {"measurement": "protective effect against I/R injury induced by hypoxia/reoxygenation, compared with H/R control group", "setting": "H9c2 cells [1]; 12.5 or 25 μM", "result": "have protective effect"}
    ]}
  ]
}
